# Laboratory results from US11442057B2, “Method for screening anticancer agent inhibiting binding of AIMP2-DX2 and HSP70” (MEDICINAL BIOCONVERGENCE RESEARCH CENTER, priority 2016, dated 2022).
# Legend:
# AIMP2-DX2 protein = assay: Western blot of AIMP2-DX2 protein expression level in H460 cells; type: cell-based, human; conditions: HSP70 or HSP90 inhibitor treatment
# [1] = test system: 293T cells overexpressing Strep-AIMP2-DX2; assay: MTT assay of cell growth by AIMP2-DX2 in 293T cells overexpressing Strep-AIMP2-DX2; type: cell-based; conditions: inhibitors 12 hours or si-HSP70
# Method: The HSP70 inhibitors Pifithrin-u (PES), and VER155008 (VER) and the HSP90 inhibitors Geldanamycin (Gel) and PUH71(Pu) were treated on 293T cells overexpressing Strep-AIMP2-DX2 and 293T cells not over-expressing, respectively for 12 hours, and MTT (Amresco) assay was performed. Each experiment was performed three times independently. Strep-AIMP2-DX2 was overexpressed in 293T cells, in which HSP70 expression was reduced using HSP70-specific si-RNA (si-HSP70), and MTT assay was performed. Each experiment was performed three times independently.
# [2] = test system: WI-26 (Normal lung cells); assay: MTT assay of cell activity in WI-26 normal lung cells; conditions: 2.5, 5, 10, 20, 40 uM
# A549 (Lung cancer cells) = assay: MTT assay of cell activity in A549 lung cancer cells; type: cell-based; conditions: 2.5, 5, 10, 20, 40 uM
# H460 cells xenograft = assay: H460 xenograft in Balb/c nude mice; type: in vivo
# Method: After the end of the experiment, the tumors were separated and weighed. The body weight and tumor size of the experimental animals were measured twice a week.
SMILES,expression level of AIMP2-DX2 protein after inhibitor treatment (AIMP2-DX2 protein),increase in cell growth by AIMP2-DX2 [1],"effect on normal lung cell WI-26 (cell activity, MTT) [2]","effect on lung cancer cell A549 (cell activity, MTT) (A549 (Lung cancer cells))","growth of cancer cells (tumor volume) (H460 cells xenograft; 50 mg/kg, 5 times a week, 10 times in total, compared with Taxol 15 mpk)","tumor weight (H460 cells xenograft; 50 mg/kg, tumors separated and weighed at end of experiment)",body weight of mice (H460 cells xenograft; during the course of the experiment)
"N#Cc1ccc(COC[C@H]2O[C@@H](n3c(NCc4ccc(Cl)c(Cl)c4)nc4c(N)ncnc43)[C@H](O)[C@@H]2O)cc1 [VER, VER155008]",decreased,No increase in cell growth by AIMP2-DX2 was observed,–,–,–,–,–
"CC(C)NCCCn1c(Sc2cc3c(cc2I)OCO3)nc2c(N)ncnc21 [PU, PUH71]",not affected,–,–,–,–,–,–
Cc1ccc(S(=O)(=O)N[C@@H](Cc2c[nH]c3ccccc23)C(=O)Nc2ccc(N3CCOCC3)cc2)cc1 [BC-DXI-495],–,–,without any effect on normal cells,only lung cancer cells induce apoptosis,inhibited to a degree similar to that of the control group Taxol,tumor suppressive effect was also confirmed in the tumor weight,no effect on the body weight
"NS(=O)(=O)C#Cc1ccccc1 [PES, Pifithrin-u]",decreased,No increase in cell growth by AIMP2-DX2 was observed,–,–,–,–,–
